Measured values as given in publication PMC6105163, “Abaloparatide Exerts Bone Anabolic Effects with Less Stimulation of Bone Resorption-Related Factors: A Comparison with Teriparatide” (Calcified Tissue International, 2018).

Columns and labels:
[1] = test system: human osteoblastic cell line SaOS-2; test: cAMP accumulation assay in SaOS-2; assay type: cell-based; conditions: for cAMP accumulation, in words: SaOS-2, 10 min (Fig. 1a), n = 3 replicate wells; for EC50 / Emax, cAMP accumulation: SaOS-2, 10 min, 2 mmol/L 3-isobutyl-1-methylxanthine, mean ± s.e.m., three independent experiments, each triplicate; for EC50: cAMP-Screen System, P = 0.13 ABL vs TPTD; for Emax, cAMP accumulation: P = 0.96 ABL vs TPTD
Experimental: The human osteoblastic cell line SaOS-2 and the rat osteoblastic cell line UMR-106 were purchased from the European Collection of Cell Cultures (Wiltshire, UK). SaOS-2 and UMR-106 were maintained in growth medium (GM): McCoy’s 5A (for SaOS-2) or Dulbecco’s Modified Eagle’s Medium (for UMR-106) supplemented with 10% FBS and 1% penicillin/streptomycin at 37 °C with 5% CO2. To initiate cell differentiation, cells were grown in differentiation medium (DM): GM containing 50 µg/mL ascorbic acid, 10 mmol/L β-glycerophosphate, and 10 nmol/L dexamethasone. The culture medium was exchanged every 6 days or less.
Cells were cultured in 96-well plates at a density of 4 × 10^4 cells/well in GM overnight. The medium was replaced with serum-free GM (containing 0.1% BSA instead of 10% FBS) for culture under starvation conditions. Twenty-four hours after the start of starvation, ABL, TPTD, or vehicle (water containing 0.1% BSA) were added to the cells with 2 mmol/L of 3-isobutyl-1-methylxanthine for 10 min. Cells were lysed and accumulated cAMP was measured using the cAMP-Screen System (Applied Biosystems, Waltham, MA, USA) according to the manufacturer’s instructions.
All data are expressed as means ± s.e.m. For calculation of EC50 and Emax, 4-parameter logistic curve fitting was performed. Student’s t test was used for two-group comparisons. Dunnett’s or Tukey’s test was used for multiple comparisons. Significance was inferred from P values of < 0.05. All data were analyzed using GraphPad Prism version 6.03 (GraphPad Software, La Jolla, CA, USA).

osteocyte-like SaOS-2 [2] = test: WNT signaling antagonist gene expression (qRT-PCR); assay type: cell-based, human; conditions: 100 nmol/L, n = 3; for DKK1 (gene expression and protein secretion) / sclerostin (gene expression and protein secretion): continuous treatment (Fig. 4e, f), qRT-PCR and ELISA; for DKK1 gene expression / sclerostin gene expression: treatment limited to first 6 h (Fig. 4c), day 30 cells
Experimental: (§1) SaOS-2 was cultured in 48-well plates at a density of 5 × 10^4 cells/well in DM for 30 days. Cells were treated with ABL and TPTD at a concentration of 100 nmol/L. Six hours after treatment, cells were washed with PBS twice, and cultured with peptide-free or peptide-containing medium for the rest of the experimental period.
Cells were lysed and total RNA was extracted using an RNeasy Mini Kit (Qiagen, Valencia, CA, USA). RNA was reverse-transcribed into cDNA using the SuperScript III First-Strand Synthesis System for RT-PCR (Invitrogen, Carlsbad, CA, USA). Quantitative RT-PCR was performed on a 7500 Real-Time PCR System (Applied Biosystems) using Power SYBR Green PCR Master Mix (Thermo Fisher Scientific, Waltham, MA, USA). The primers used in this study were as follows: 5′-CGATGGTGGATGGCTCATG-3′ (forward) and 5′-ACCAGATGGGATGTCGGTG-3′ (reverse) for RANKL, 5′-[…]-3′ (forward) and 5′-[…]-3′ (reverse) for M-CSF, 5′-[…]-3′ (forward) and 5′-[…]-3′ (reverse) for OPG, 5′-[…]-3′ (forward) and 5′-[…]-3′ (reverse) for IGF1, 5′-[…]-3′ (forward) and 5′-[…]-3′ (reverse) for osteocalcin, 5′-[…]-3′ (forward) and 5′-[…]-3′ (reverse) for DMP1, 5′-[…]-3′ (forward) and 5′-[…]-3′ (reverse) for SOST, 5′-[…]-3′ (forward) and 5′-[…]-3′ (reverse) for DKK1, 5′-GTGAAGGTCGGAGTCAACG-3′ (forward) and 5′-TGAGGTCAATGAAGGGGTC-3′ (reverse) for GAPDH.

PTH1R = conditions: ref [22]; cited from earlier work
Text: It is unclear why ABL stimulates lower expression of bone resorption-related factors than TPTD with transient treatment only. Recently, it was reported that PTH1R has at least two types of active conformations and that the binding conformation selectivity differs between ABL and TPTD [21, 22]. This difference further affects the duration of the downstream signaling. […] We therefore thought that the difference in bone resorption-related factors could arise from the d ...

[3] = test system: patients with osteoporosis; conditions: cited from earlier work
SaOS-2 = test: M-CSF protein secretion (ELISA); assay type: cell-based, human; conditions: 100 nmol/L, n = 3; for M-CSF protein secretion: continuous treatment (Fig. 2c), ABL and TPTD did not differ significantly
Experimental: SaOS-2 was cultured in 48-well plates at a density of 5 × 10^4 cells/well in DM for 10 days. The medium was replaced with serum-free DM for culture under starvation conditions. Twenty-four hours after the start of starvation, cells were treated with ABL and TPTD at a concentration of 100 nmol/L. Six hours after treatment, cells were washed with PBS twice, and cultured with peptide-free or peptide-containing medium for the rest of the experimental period.
(§2) Human Quantikine M-CSF, Sclerostin, and DKK1 ELISA kits (R&D Systems, Minneapolis, MN, USA) were used to quantify M-CSF, sclerostin, and DKK1, respectively, in the cell supernatants according to the manufacturer’s instructions.

osteocyte-like SaOS-2 [4] = test: Sclerostin and DKK1 protein secretion (ELISA); assay type: cell-based, human; conditions: 100 nmol/L, transient (Fig. 4d); efficacies of ABL and TPTD not significantly different; n = 3
Experimental: as §1, §2

cAMP and PKC = conditions: ref [24]; cited from earlier work
Text: There is another possibility that the two peptides could show the different activity on protein kinase C (PKC). PKC is the downstream signal of PTH1R and is involved in the stimulation of bone resorption-related factors and bone catabolism. In fact, ostabolin, an amidated form of human PTH(1–31), differs from PTH(1–34) in PKC activation.

[5] = subcutaneous injection, ref [14]

[Glu^22,25, Leu^23,28,31, Aib^29, Lys^26,30] human PTHrP(1–34)–NH2 [Abaloparatide]
cAMP accumulation, in words [1]: dose-dependently increased cAMP
EC50 [1]: 5.1 ± 0.4 nM
Emax, cAMP accumulation [1]: 21.9 ± 1.4 nmol/L
EC50 and Emax of ABL compared with TPTD ([1]; SaOS-2, Table 1): no significant differences
DKK1 (gene expression and protein secretion) (osteocyte-like SaOS-2 [2]): similarly inhibited
sclerostin (gene expression and protein secretion) (osteocyte-like SaOS-2 [2]): similarly inhibited
DKK1 gene expression (osteocyte-like SaOS-2 [2]): similarly suppressed
sclerostin gene expression (osteocyte-like SaOS-2 [2]): similarly suppressed
duration of cAMP production after wash-out of unbound ligand (PTH1R): transient
BMD at the hip and spine ([3]; daily subcutaneous, ref [14]): robust BMD increases
incidence of vertebral and non-vertebral fractures ([3]; daily subcutaneous, ref [14]): reduced incidence
calcemic effect vs TPTD ([3]; human, in vivo, sc): reduced as compared with TPTD
bone formation and resorption markers ([3]; ref [14]): increased both bone formation and resorption
bone formation and resorption markers vs TPTD ([3]; ref [14]): attenuated as compared with TPTD
bone formation marker [3, 5]: increased
bone resorption marker vs TPTD [3, 5]: less stimulation of the bone resorption marker than observed for TPTD
M-CSF protein secretion (SaOS-2): increased
M-CSF protein secretion, ABL vs TPTD (SaOS-2; transient treatment (first 6 h) (Fig. 2e)): significantly less with ABL treatment than with TPTD
DKK1 protein secretion (osteocyte-like SaOS-2 [4]): inhibited
sclerostin protein secretion (osteocyte-like SaOS-2 [4]): inhibited

human PTH(1–34) [Teriparatide]
cAMP accumulation, in words [1]: dose-dependently increased cAMP
EC50 [1]: 3.9 ± 0.5 nM
Emax, cAMP accumulation [1]: 22.0 ± 1.5 nmol/L
DKK1 (gene expression and protein secretion) (osteocyte-like SaOS-2 [2]): similarly inhibited
sclerostin (gene expression and protein secretion) (osteocyte-like SaOS-2 [2]): similarly inhibited
DKK1 gene expression (osteocyte-like SaOS-2 [2]): similarly suppressed
sclerostin gene expression (osteocyte-like SaOS-2 [2]): similarly suppressed
duration of cAMP production after wash-out of unbound ligand (PTH1R): sustained after the unbound ligand is washed out
cAMP accumulation and PKC activation (cAMP and PKC): stimulated both cAMP and PKC
M-CSF protein secretion (SaOS-2): increased
DKK1 protein secretion (osteocyte-like SaOS-2 [4]): inhibited
sclerostin protein secretion (osteocyte-like SaOS-2 [4]): inhibited
